From article PMC5561102, “Fusion protein analysis reveals the precise regulation between Hsp70 and Hsp100 during protein disaggregation” (Scientific Reports, 2017)

Columns and labels:
Assay in all cases: UV difference spectrum after size exclusion chromatography
Details in all cases: 3 mM ATP, 55 °C 60 min incubation, pH 7.5, 5 mM MgCl2; binding stoichiometry, not an affinity
TDnaK [1] = biological target: T1, TDnaK (Thermus thermophilus, UniProt Q56235, K69A)
T1 construct: gene dnaK; full length, untagged (plasmid pMDK6), expressed in E. coli; C-terminus Asp615

TDnaK [2] = biological target: T2, TDnaK (Thermus thermophilus, UniProt Q56235, T195A)
T2 construct: gene dnaK; full length, untagged (plasmid pMDK6), expressed in E. coli; C-terminus Asp615

TDnaK [3] = biological target: T3, TDnaK (Thermus thermophilus, UniProt Q56235)
T3 construct: gene dnaK; full length, untagged (plasmid pMDK6), expressed in E. coli; C-terminus Asp615
T3 sequence (Q56235 whole entry): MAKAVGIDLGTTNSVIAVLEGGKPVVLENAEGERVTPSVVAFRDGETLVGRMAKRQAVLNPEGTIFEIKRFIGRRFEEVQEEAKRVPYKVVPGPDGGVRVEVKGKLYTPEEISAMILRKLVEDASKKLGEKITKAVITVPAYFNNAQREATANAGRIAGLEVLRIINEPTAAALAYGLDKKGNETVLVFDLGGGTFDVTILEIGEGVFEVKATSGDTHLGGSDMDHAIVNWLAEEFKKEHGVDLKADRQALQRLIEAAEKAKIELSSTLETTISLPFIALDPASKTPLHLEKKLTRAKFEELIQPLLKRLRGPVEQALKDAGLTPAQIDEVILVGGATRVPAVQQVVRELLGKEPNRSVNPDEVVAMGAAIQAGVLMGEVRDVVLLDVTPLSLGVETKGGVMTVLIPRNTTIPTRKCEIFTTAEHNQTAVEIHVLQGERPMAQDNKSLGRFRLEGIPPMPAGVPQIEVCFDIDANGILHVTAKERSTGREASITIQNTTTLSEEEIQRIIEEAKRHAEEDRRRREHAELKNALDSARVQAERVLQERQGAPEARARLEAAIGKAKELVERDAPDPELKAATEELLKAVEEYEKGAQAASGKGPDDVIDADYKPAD

T1 sequence (Q56235 whole entry K69A): as the sequence (Q56235 whole entry) above, with K69A counted along it
T2 sequence (Q56235 whole entry T195A): as the sequence (Q56235 whole entry) above, with T195A counted along it

## Nc1ncnc2c1ncn2[C@@H]1O[C@H](COP(=O)(O)OP(=O)(O)OP(=O)(O)O)[C@@H](O)[C@H]1O [ATP]
TDnaK [1]
  bound ATP per TDnaK: 0.89 mol/mol
TDnaK [2]
  bound ATP per TDnaK: 0.64 mol/mol
TDnaK [3]
  bound ATP per TDnaK: 0.70 mol/mol
